pIC50: −log10 of the molar value.

The test addresses T1, GST-Aurora A (Homo sapiens, UniProt O14965).
T1 construct: N-terminal GST fusion with full length Aurora A (1-403 amino acids); purchased Carna Biosciences 05-101
T1 sequence (O14965 1-403): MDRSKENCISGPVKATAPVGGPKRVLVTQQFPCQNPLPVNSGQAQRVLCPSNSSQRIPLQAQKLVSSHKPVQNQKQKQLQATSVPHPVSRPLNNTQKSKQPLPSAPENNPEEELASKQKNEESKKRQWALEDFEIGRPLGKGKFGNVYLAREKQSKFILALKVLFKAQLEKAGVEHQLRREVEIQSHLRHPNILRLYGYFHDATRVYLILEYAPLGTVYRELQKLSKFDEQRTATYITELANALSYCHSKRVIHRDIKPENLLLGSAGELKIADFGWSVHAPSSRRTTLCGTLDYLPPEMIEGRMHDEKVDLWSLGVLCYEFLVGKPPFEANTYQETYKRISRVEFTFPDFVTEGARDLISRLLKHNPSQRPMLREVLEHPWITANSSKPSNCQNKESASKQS
The test is described as follows: Aurora A IC50, Caliper LC3000 mobility shift assay. Format: biochemical. The settings on record: LC3000 method; 15 uM ATP (the KM value); read-out: Aurora Kinase A Activity (IC50). The method, then:
The Aurora assays described here are performed on two Caliper Life Sciences systems: the LC3000 and the Desktop Profiler. These provide data on enzyme activity via measurement of the relative amounts of phosphorylated or unphosphorylated fluorescently labelled substrate peptide at the end of an enzymatic reaction. These different states of peptide are resolved by applying a potential difference across the sample. The presence of the charged phosphate group on the product (as opposed to the substrate) causes a different peptide mobility between the two peptides. This is visualized by excitation of the fluorescent label on the substrate and product peptides and represented as peaks within the analysis software.
In order to measure inhibitor activity of Aurora A inhibitors in the Caliper Life Sciences LC3000, a TTP Mosquito liquid handling instrument is used to place 0.25 ul of the appropriate concentration of inhibitor in 100% DMSO (for a dose response curve calculation) into each well of a 384-well plate. To this reaction components are added to a final volume of 25 ul: • 0.067 ng/ul GST-Aurora A (Carna Biosciences 05-101. N-terminal GST fusion with full length Aurora A (1-403 amino acids), accession number NP 940835.1). • 15 uM ATP (Fluke, 02055) • 1 mM DTT (Sigma, D0632) • 1 mM MgCl2 (Sigma, M1028) • 1 uM substrate peptide (sequence FITC-LRRASLG-(CONH2), synthesized by Tufts Peptide Synthesis service. • 100 mM HEPES pH 7.5 (Calbiochem, 391338) • 0.015% Brij-35 (Sigma, B4184)
The reaction is incubated for 90 min at 25 C, and then stopped by the addition of 70 ul of Stop buffer (100 mM HEPES pH 7.5, 0.015% Brij-35, 10 mM EDTA (Sigma, E7889)).
The plate is read on a Caliper LC3000 in an Off-Chip mobility shift assay format, using the following parameters for a 12-sipper chip: screening pressure—1.8 psi, upstream voltage—2700, downstream voltage—1000. These conditions cause unphosphorylated substrate and phosphorylated product peptide to resolve as separate peaks allowing direct measurement of percentage of conversion of substrate to product. The percent conversion can be plotted against concentration of inhibitor to produce a sigmoidal dose response curve, from which an 1050 can be calculated using XLFit for Microsoft Excel.
In the desired wells of a 384-well plate, Aurora A (0.067 ng/ul) was incubated with 15 uM ATP (the KM value), 1 mM DTT, 1 mM MgCl2, and 1 uM peptide substrate (sequence FITC-LRRASLG-(CONH2), FITC=fluorescein isothiocyanate) in 100 mM HEPES pH 7.5 and 0.015% Brij-35 buffer. The reaction was incubated for 90 min at 25 C, and then stopped by the addition of 45 ul of Stop buffer (100 mM HEPES ph 7.5, 0.015% Brij-35, 10 mM EDTA).
The plate was read in a Caliper LC 3000 in an Off-Chip mobility shift assay format, using the following parameters: screening pressure—1.8 psi, upstream voltage—2700, downstream voltage—1000. These conditions cause unphosphorylated substrate peptide to resolve as a peak before that of the phosphorylated peptide product.
In the following table “+” means >100 nM, “++” means 11-100 nM, and “+++” means <11 nM.
The pIC50 is the negative decadic logarithm of the IC50, by convention in mol/L. Turning to `O=c1[nH]c2ncccc2c2cc(NCc3cc(C(F)(F)F)ccc3C(F)(F)F)ccc12` [Compound 468, 9-(2,5-Bis(trifluoromethyl)benzylamino)benzo[c][1,8]naphthyridin-6(5H)-one], the pIC50 was under 7.00.

Take `O=C(Nc1ccc(Nc2ccnc3[nH]c(=O)c4ccccc4c23)cc1)c1c(Cl)cccc1Cl` [Compound 395, 2,6-Dichloro-N-[4-(6-oxo-5,6-dihydro-benzo[c][1,8]naphthyridin-1-ylamino)-phenyl]-benzamide]: the pIC50 was over 7.96.

As for `O=C(Nc1ccc(Nc2ccnc3[nH]c(=O)c4c(C(=O)NCCCN5CCOCC5)cccc4c23)cc1)c1ccc(F)cc1C(F)(F)F` [Compound 443, 1-[4-(4-Fluoro-2-trifluoromethyl-benzoylamino)-phenylamino)-6-oxo-5,6-dihydro-benzo[c][1,8]naphthyridin-7-carboxylic acid 3-morpholin-4-yl-propyl amide], the pIC50 is over 7.96.

In the case of `CN1CCN(c2ccc3c(=O)[nH]c4nccc(Nc5ccc(NC(=O)c6ccccc6)cc5)c4c3c2)CC1` [Compound 294, N-(4-(9-(4-methylpiperazin-1-yl)-6-oxo-5,6-dihydrobenzo[c][1,8]naphthyridin-1-ylamino)phenyl)benzamide], the pIC50 is 7.00 to 7.96.

Consider `Cc1ccc(C(=O)Nc2ccc(Nc3ccnc4[nH]c(=O)c5ccccc5c34)cc2)cc1` [Compound 394, 4-Methyl-N-[4-(6-oxo-5,6-dihydro-benzo[c][1,8]naphthyridin-1-ylamino)-phenyl]-benzamide], for which the pIC50 was over 7.96.

As to `O=c1[nH]c2ncccc2c2cc(NCc3ccc4c(c3)OCO4)ccc12` [Compound 476, 9-(Benzo[d][1,3]dioxol-5-ylmethylamino)benzo[c][1,8]naphthyridin-6(5H)-one], the pIC50 was under 7.00.

With `O=C(Nc1ccc(Nc2ccnc3[nH]c(=O)c4ccccc4c23)cc1)C(F)c1ccccc1` (stereo not shown) [Compound 505, 2-Fluoro-N-(4-(6-oxo-5,6-dihydrobenzo[c][1,8]naphthyridin-1-ylamino)phenyl)-2-phenylacetamide], the negative-log IC50 (pIC50) is 7.00 to 7.96.

Turning to `O=C(Nc1ccc(Nc2ccnc3[nH]c(=O)c4ccccc4c23)cc1)c1cc(C(F)(F)F)cc(C(F)(F)F)c1` [Compound 400, N-[4-(6-Oxo-5,6-dihydro-benzo[c][1,8]naphthyridin-1-ylamino)-phenyl]-3,5-bis-trifluoromethyl-benzamide], the pIC50 was 7.00 to 7.96.

On to `O=C(Nc1ccc(Nc2ccnc3[nH]c(=O)c4ccccc4c23)cc1)c1cc(Cl)cc(Cl)c1` [Compound 390, 3,5-Dichloro-N-[4-(6-oxo-5,6-dihydro-benzo[c][1,8]naphthyridin-1-ylamino)-phenyl]-benzamide], for which the pIC50 is over 7.96.

Regarding `O=c1[nH]c2ncccc2c2cc(NCc3cccc([N+](=O)[O-])c3)ccc12` [Compound 465, 9-(3-Nitrobenzylamino)benzo[c][1,8]naphthyridin-6(5H)-one], the pIC50 is under 7.00.

`Cn1ccc(C(=O)Nc2ccc(Nc3ccnc4[nH]c(=O)c5ccccc5c34)cc2)n1` [Compound 345, 1-methyl-N-(4-(6-oxo-5,6-dihydrobenzo[c][1,8]naphthyridin-1-ylamino)phenyl)-1H-pyrazole-3-carboxamide]: the pIC50 is 7.00 to 7.96.

Take `Cc1cc(Nc2ccnc3[nH]c(=O)c4ccccc4c23)ccc1NC(=O)c1ccccc1` [Compound 322, N-(2-Methyl-4-(6-oxo-5,6-dihydrobenzo[c][1,8]naphthyridin-1-ylamino)phenyl)benzamide]: the pIC50 was under 7.00.

In the case of `CN1CCN(C(=O)c2ccc3c(c2)c(=O)[nH]c2nccc(Nc4ccc(NC(=O)c5ccccc5)cc4)c23)CC1` [Compound 269, N-(4-(8-(4-Methylpiperazine-1-carbonyl)-6-oxo-5,6-dihydrobenzo[c][1,8]naphthyridin-1-ylamino)phenyl)benzamide], the pIC50 is 7.00 to 7.96.

`O=C(Nc1ccc(Nc2ccnc3[nH]c(=O)c4ccc(F)cc4c23)cc1)c1ccc(F)cc1` [Compound 419, 4-Fluoro-N-[4-(9-fluoro-6-oxo-5,6-dihydro-benzo[c][1,8]naphthyridin-1-ylamino)-phenyl]-benzamide]: the pIC50 was over 7.96.

Turning to `O=c1[nH]c2nccc(Nc3c(Cl)ccc4c3OCO4)c2c2ccccc12` [Example 188, 1-(5-Chloro-benzo[1,3]dioxol-4-ylamino)-5H-benzo[c][1,8]naphthyridin-6-one], the pIC50 was under 7.00.

In the case of `Cn1ccc(-c2ccc(Nc3ccnc4[nH]c(=O)c5ccccc5c34)cc2)n1` [Compound 335, 1-(4-(1-Methyl-1H-pyrazol-3-yl)phenylamino)benzo[c][1,8]naphthyridin-6(5H)-one], the pIC50 is under 7.00.

For the compound `O=c1[nH]c2nccc(Nc3ccc4c(cnn4Cc4ccccc4)c3)c2c2ccccc12` [Compound 333, 1-(1-Benzyl-1H-indazol-5-ylamino)benzo[c][1,8]naphthyridin-6(5H)-one], the pIC50 was 7.00 to 7.96.

For the compound `O=C(Nc1ccc(Nc2ccnc3[nH]c(=O)c4ccc(F)cc4c23)cc1)c1ccc(F)c(F)c1` [Compound 417, 3,4-Difluoro-N-[4-(9-fluoro-6-oxo-5,6-dihydro-benzo[c][1,8]naphthyridin-1-ylamino)-phenyl]-benzamide], the pIC50 is over 7.96.

`O=c1[nH]c2ncccc2c2cc(NCc3ccccc3C(F)(F)F)ccc12` [Example 48, 9-(2-Trifluoromethyl-benzylamino)-5H-benzo[c][1,8]naphthyridin-6-one]: the pIC50 is 7.00 to 7.96.

Turning to `O=C(Nc1ccc(Nc2ccnc3[nH]c(=O)c4ccccc4c23)cc1)c1cccc2c1OCC2` [Compound 433, 2,3-Dihydro-benzofuran-7-carboxylic acid [4-(6-oxo-5,6-dihydro-benzo[c][1,8]naphthyridin-1-ylamino)-phenyl]-amide], the pIC50 was 7.00 to 7.96.

Take `O=C(c1ccc(F)cc1C(F)(F)F)N1CCOc2cc(Oc3ccnc4[nH]c(=O)c5ccccc5c34)ccc21` [Example 219, 1-[4-(4-Fluoro-2-trifluoromethyl-benzoyl)-3,4-dihydro-2H-benzo[1,4]oxazin-7-yloxy]-5H-benzo[c][1,8]naphthyridin-6-one]: the pIC50 was under 7.00.

With `CN1CCN(C(=O)c2ccc3c(=O)[nH]c4nccc(Nc5ccc(NC(=O)c6ccccc6)cc5)c4c3c2)CC1` [Compound 290, N-(4-(9-(4-Methylpiperazine-1-carbonyl)-6-oxo-5,6-dihydrobenzo[c][1,8]naphthyridin-1-ylamino)phenyl)benzamide], the pIC50 was 7.00 to 7.96.

For the compound `O=C(Nc1ccc(Nc2ccnc3[nH]c(=O)c4c(C(=O)NCCCN5CCOCC5)cccc4c23)cc1)c1ccccc1` [Compound 437, 1-[4-Benzoylamino-phenylamino)-6-oxo-5,6-dihydro-benzo[c][1,8]naphthyridin-7-carboxylic acid 3-morpholin-4-yl-propyl amide], the pIC50 was over 7.96.

On to `O=C(Nc1ccccc1)c1ccc(Nc2ccnc3[nH]c(=O)c4ccccc4c23)cc1` [Compound 317, 4-(6-Oxo-5,6-dihydrobenzo[c][1,8]naphthyridin-1-ylamino)-N-phenylbenzamide], for which the pIC50 is under 7.00.

Regarding `O=C(Nc1ccc(Nc2ccnc3[nH]c(=O)c4ccccc4c23)cc1)C(F)(F)F` [Compound 348, 2,2,2-Trifluoro-N-(4-(6-oxo-5,6-dihydrobenzo[c][1,8]naphthyridin-1-ylamino)phenyl)acetamide], the pIC50 is under 7.00.

The values are drawn from patent publication US8735584B2 (Merck Patent GmbH, priority 2008, dated 2014).
